Test results from PMC9135731 (Communications Biology, 2022).

Tests used:
AviM = target: T1, AviM (Streptomyces viridochromogenes, UniProt O05170); assay: LC-MS detection of orsellinic acid product; type: biochemical; settings: 50 uM enzyme, 10 mM MgCl2, pH 7.4, 25 °C, with CoA and Sfp
T1 construct: expressed in E. coli BAP1 (sfp), phosphopantetheinylated with CoA and Sfp before assay

[1] = target: the molecule itself; assay: SEC; Superdex 200/Superose 6 gel filtration column, 150 mM NaCl, 10 mM Tris pH 7.5, 4 °C

T1 sequence (O05170 entry or part of it): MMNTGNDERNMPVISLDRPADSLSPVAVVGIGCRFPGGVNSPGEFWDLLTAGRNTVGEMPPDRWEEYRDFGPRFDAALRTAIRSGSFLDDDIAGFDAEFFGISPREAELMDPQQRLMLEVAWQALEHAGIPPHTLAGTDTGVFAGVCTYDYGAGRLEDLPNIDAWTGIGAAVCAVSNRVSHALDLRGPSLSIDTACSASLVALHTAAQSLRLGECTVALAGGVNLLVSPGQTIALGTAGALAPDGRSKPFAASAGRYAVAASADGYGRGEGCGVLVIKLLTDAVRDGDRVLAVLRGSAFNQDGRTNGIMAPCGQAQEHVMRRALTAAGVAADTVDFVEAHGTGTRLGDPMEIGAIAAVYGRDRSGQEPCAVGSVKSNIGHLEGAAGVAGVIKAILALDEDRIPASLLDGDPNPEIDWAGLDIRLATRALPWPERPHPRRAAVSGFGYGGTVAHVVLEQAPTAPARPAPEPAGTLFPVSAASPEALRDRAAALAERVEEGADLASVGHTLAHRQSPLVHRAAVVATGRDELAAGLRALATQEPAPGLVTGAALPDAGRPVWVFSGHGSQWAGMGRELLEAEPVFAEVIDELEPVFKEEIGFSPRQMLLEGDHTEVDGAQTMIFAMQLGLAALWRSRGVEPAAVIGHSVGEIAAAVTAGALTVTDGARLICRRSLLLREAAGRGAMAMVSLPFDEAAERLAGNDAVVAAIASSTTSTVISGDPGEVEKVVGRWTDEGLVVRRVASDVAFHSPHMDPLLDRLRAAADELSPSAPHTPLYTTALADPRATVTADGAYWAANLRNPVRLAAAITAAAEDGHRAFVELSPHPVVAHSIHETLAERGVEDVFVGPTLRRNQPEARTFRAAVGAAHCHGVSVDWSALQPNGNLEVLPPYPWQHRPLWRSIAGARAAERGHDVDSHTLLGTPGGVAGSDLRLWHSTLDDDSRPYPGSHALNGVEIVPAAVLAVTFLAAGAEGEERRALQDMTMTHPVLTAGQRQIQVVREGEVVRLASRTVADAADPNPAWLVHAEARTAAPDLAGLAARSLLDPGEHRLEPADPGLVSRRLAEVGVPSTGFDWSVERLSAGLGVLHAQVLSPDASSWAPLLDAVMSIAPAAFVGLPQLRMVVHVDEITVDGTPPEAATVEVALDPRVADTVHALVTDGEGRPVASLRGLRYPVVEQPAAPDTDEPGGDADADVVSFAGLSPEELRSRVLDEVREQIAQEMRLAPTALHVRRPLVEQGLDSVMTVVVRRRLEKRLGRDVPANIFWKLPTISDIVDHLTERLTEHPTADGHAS

Molecule: CC(=O)SCCNC(=O)CCNC(=O)[C@H](O)C(C)(C)COP(=O)(O)OP(=O)(O)OC[C@H]1O[C@@H](n2cnc3c(N)ncnc32)[C@H](O)[C@@H]1OP(=O)(O)O [acetyl-CoA]
- LC-MS detection of orsellinic acid product (AviM; starter unit, malonyl-CoA co-substrate): Trace amount of OSA was indeed produced when AviM was incubated with acetyl-CoA and malonyl-CoA

Molecule: CC(C)(COP(=O)(O)OP(=O)(O)OC[C@H]1O[C@@H](n2cnc3c(N)ncnc32)[C@H](O)[C@@H]1OP(=O)(O)O)[C@@H](O)C(=O)NCCC(=O)NCCSC(=O)CC(=O)O [malonyl-CoA]
- LC-MS detection of orsellinic acid product (AviM; extender unit, acetyl-CoA co-substrate): Trace amount of OSA was indeed produced when AviM was incubated with acetyl-CoA and malonyl-CoA

B1: AviM PT domain (product template domain of the orsellinic acid synthase AviM) (domain or fragment, Streptomyces viridochromogenes Tü57)
chain: DSHTLLGTPGGVAGSDLRLWHSTLDDDSRPYPGSHALNGVEIVPAAVLAVTFLAAGAEGEERRALQDMTMTHPVLTAGQRQIQVVREGEVVRLASRTVADAADPNPAWLVHAEARTAAPDLAGLAARSLLDPGEHRLEPADPGLVSRRLAEVGVPSTGFDWSVERLSAGLGVLHAQVLSPDASSWAPLLDAVMSIAPAAFVGLPQLRMVVHVDEITVDGTPPEAATVEVALDPRVADTVHALVTDGEGRPVASLRGLRYP
notes: AviM, orsellinic acid synthase (iterative type I PKS, KS-AT-PT-ACP) of Streptomyces viridochromogenes Tü57; excised PT domain cloned as an 816 bp NdeI/EcoRI fragment in pET28a; An 816 bp fragment codes for about 272 residues, more than the 260 of residues 915-1174; also called bacterial PT domain; source: E. coli BL21(DE3), purified (Nickel-NTA, gel filtration); not shown: His6, N-terminal, kept
- stoichiometry N [1]: 2
